The source of these data is ChEMBL document CHEMBL1201862, “PubChem BioAssay data set” (2004).

Test in all cases: DTP human tumour cell line panel, 48 h
For experiment [1], the system named is SK-MEL-5.
For experiment [2], the system named is OVCAR-4.
For experiment [3], the system named is HCT-116.
Experiment [4] has as its system CAKI-1.
In experiment [5] the test system is A549.
Experiment [6] concerns TK-10.
Experiment [7] relates to BT-549.
For experiment [8], the system named is NCI-H460.
The test system of experiment [9] is NCI-H226.
Experiment [10] deals with SK-OV-3.
For experiment [11], the system named is SW-620.
Experiment [12] concerns NCI/ADR-RES.
Experiment [13] concerns LOX IMVI.
Experiment [14] deals with KM12.
Experiment [15] has as its system MDA-MB-435.
The subject of experiment [16] is SNB-75.
For experiment [17], the system named is IGROV-1.
In experiment [18] the test system is A498.
Experiment [19] deals with NCI-H522.

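Dose response: 5 concentrations. Exposure: 48 h. Format: 96-well plates. Endpoint: linear interpolation; highest concentration if not reached. Abbreviation: GI50, concentration required for 50% inhibition of growth.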 Calls of active or inactive are those of the source. No stated cut-off is given here; in the data, active = GI50 up to about 1.1 µM and inactive = higher.

Consider `CCOC(=O)/C=C(\C(=O)OCC)n1cc(C)c(=O)n(Cc2cn(COCCOC(C)=O)nn2)c1=O`, for which the GI50 in experiment [1] was 20.9 µM (inactive); in experiment [2], 23.3 µM (inactive); in experiment [3], 20.5 µM (inactive); in [4] it was 2.84 µM (inactive); in experiment [5], 27.5 µM (inactive); in experiment [6] it was 4.97 µM (inactive). Moreover, the GI50 in experiment [7] is 10.6 µM (inactive); in experiment [8], 10.2 µM (inactive); in [9] it was > 10 µM (inactive); in [10], 71.8 µM (inactive); in experiment [11], 2.94 µM (inactive); in experiment [12], 22.6 µM (inactive). The GI50 in [13] was 15.9 µM (inactive); in experiment [14] it was 16.2 µM (inactive); in experiment [15], 6.55 µM (inactive); in experiment [16], 21 µM (inactive); in [17] it was 16.7 µM (inactive).

In the case of `Nc1nc(Cl)cc(NC23CC4CC(CC(C4)C2)C3)n1`, the GI50 in experiment [18] is > 100 µM (inactive); in experiment [19] it was 31 µM (inactive); in experiment [2] it was > 100 µM (inactive); in experiment [3], 78.2 µM (inactive); in [4], > 100 µM (inactive); in experiment [5] it was 98.6 µM (inactive). The GI50 in [7] was 61.7 µM (inactive); in [8], > 100 µM (inactive); in experiment [9], 76.2 µM (inactive); in experiment [10] it was > 100 µM (inactive); in [11], > 100 µM (inactive); in experiment [12] it was 42.9 µM (inactive). The GI50 is > 100 µM (inactive) in experiment [14], > 100 µM (inactive) in experiment [15], 26.2 µM (inactive) in experiment [16] and 57.3 µM (inactive) in [17].

On to `Clc1cc2ncn(C3CCCCO3)c2cc1Cl` (configuration not stated), for which the GI50 in [1] is 38.4 µM (inactive); in experiment [19], 4.7 µM (inactive); in experiment [2], 48.9 µM (inactive); in experiment [3] it was 51.9 µM (inactive); in [4], 39.4 µM (inactive); in experiment [5] it was 47.8 µM (inactive). Further, the GI50 in [7] is 22.2 µM (inactive); in experiment [9], 17.5 µM (inactive); in experiment [10] it was > 100 µM (inactive); in [11] it was 53.7 µM (inactive); in experiment [12], 36.9 µM (inactive); in [13], 32.5 µM (inactive). The GI50 in [14] is 14.2 µM (inactive); in experiment [15], 75.9 µM (inactive); in experiment [16], 11.7 µM (inactive); in [17], 20.1 µM (inactive).

As for `C(=N\c1ccc(-c2nc3ccccc3o2)cc1)/c1ccco1`, the GI50 is 30.8 µM (inactive) in experiment [1]; 37.7 µM (inactive) in experiment [18]; 44.2 µM (inactive) in experiment [19]; 57.4 µM (inactive) in [2]; 59.6 µM (inactive) in experiment [3]; 40 µM (inactive) in experiment [4]. Moreover, the GI50 in [7] was 77.4 µM (inactive); in [11], > 100 µM (inactive); in experiment [12], 61.7 µM (inactive); in [13], 58.9 µM (inactive); in experiment [15] it was 75.9 µM (inactive); in experiment [16], 49.1 µM (inactive). The GI50 in experiment [17] was 49.4 µM (inactive).

For the compound `CC1=CN(c2ccccc2)S2=C1c1sc3c(c1N2c1ccc(Br)cc1)CCCC3` (configuration not stated), the GI50 in experiment [1], in [18], in experiment [19], in [2], in experiment [3] and in experiment [4] was > 100 µM (inactive) each time. Besides, the GI50 in experiment [5], in experiment [6], in experiment [7], in experiment [8], in experiment [9] and in [10] was > 100 µM (inactive) each time. The GI50 in experiment [11] was > 100 µM (inactive); in experiment [12], > 100 µM (inactive); in experiment [13], 97.1 µM (inactive); in experiment [14] it was > 100 µM (inactive); in [15], > 100 µM (inactive); in experiment [17] it was > 100 µM (inactive).

For `COc1cc(OC)nc(Nc2c(C#N)c3nc4ccccc4n3c3ccccc23)n1`, the GI50 in experiment [1] is > 100 µM (inactive); in [19], 19.2 µM (inactive); in [2], 22.3 µM (inactive); in experiment [3], 29.6 µM (inactive); in experiment [4], 29.1 µM (inactive); in experiment [5], > 100 µM (inactive). Besides, the GI50 in experiment [6] is 26.5 µM (inactive); in experiment [7] it was 15.8 µM (inactive); in [8], 43 µM (inactive); in experiment [9], 39.4 µM (inactive); in [10] it was 51.6 µM (inactive); in experiment [11] it was > 100 µM (inactive). Besides, the GI50 in experiment [12] was 29.8 µM (inactive); in experiment [13] it was 21.4 µM (inactive); in [14] it was 45.9 µM (inactive); in experiment [15], > 100 µM (inactive); in [16], 16.4 µM (inactive); in experiment [17] it was 21.8 µM (inactive).

With `CC(C)Nc1n[nH]c(=O)n1C(C)C`, the GI50 in [1], in experiment [18], in [3], in [4], in experiment [5] and in experiment [6] was > 100 µM (inactive) each time. The GI50 is > 100 µM (inactive) in experiment [7]; > 100 µM (inactive) in experiment [8]; 81.5 µM (inactive) in experiment [9]; > 100 µM (inactive) in experiment [10]; > 100 µM (inactive) in [11]; > 100 µM (inactive) in experiment [12]. Also, the GI50 in experiment [13] is > 100 µM (inactive); in experiment [14] it was > 100 µM (inactive); in experiment [15], > 100 µM (inactive); in [16], 99.3 µM (inactive); in experiment [17], > 100 µM (inactive).

Turning to `CCOC(=O)c1sc2nc(SC)nc3c2c1NCN3c1ccc2c(c1)OCO2`, the GI50 in [1] was 67.5 µM (inactive); in [18], 33.3 µM (inactive); in experiment [19], 31.1 µM (inactive); in experiment [2], 5.2 µM (inactive); in [3], 27.5 µM (inactive); in experiment [4], 58.1 µM (inactive). Moreover, the GI50 in experiment [5] was 7.83 µM (inactive); in experiment [6] it was 17.2 µM (inactive); in [7], 30.1 µM (inactive); in [9], 25.8 µM (inactive); in experiment [10], 10.7 µM (inactive); in experiment [11] it was 17.2 µM (inactive). For the same compound, the GI50 in experiment [12] was 8.77 µM (inactive); in [13], 23.8 µM (inactive); in [14], > 100 µM (inactive); in experiment [15], 14.8 µM (inactive); in experiment [17], 26.1 µM (inactive).

Regarding `OC12C3C4CC5C(C4[C@@H]1Br)C2[C@@](O)(c1c(F)c(F)c(F)c(F)c1F)C53` (some centres not stated), the GI50 is 26.2 µM (inactive) in [1]; 33.2 µM (inactive) in experiment [18]; 29.6 µM (inactive) in experiment [19]; 28.2 µM (inactive) in [2]; 30.8 µM (inactive) in experiment [3]; 21.1 µM (inactive) in experiment [4]. Moreover, the GI50 in experiment [5] was 33.7 µM (inactive); in [6], 47.8 µM (inactive); in experiment [7] it was 39.4 µM (inactive); in experiment [8] it was 33.7 µM (inactive); in [11], 43.3 µM (inactive); in [12], 27.2 µM (inactive). In addition, the GI50 in experiment [13] is 32.1 µM (inactive); in [14], 15.7 µM (inactive); in [15] it was 37.6 µM (inactive); in experiment [17], 35.6 µM (inactive).

`Cc1ccc2c(ccc3c[n+]4ccccc4c(C)c32)c1.[O-][Cl+3]([O-])([O-])[O-]`: the GI50 was 1.1 µM (active) in experiment [1]; 13.4 µM (inactive) in [18]; 1.59 µM (inactive) in [19]; 2.07 µM (inactive) in experiment [2]; 4.59 µM (inactive) in experiment [3]; 0.297 µM (active) in experiment [4]. Also, the GI50 in [5] is 0.373 µM (active); in experiment [6], 23.4 µM (inactive); in experiment [7], 1.15 µM (inactive); in experiment [8], > 100 µM (inactive); in experiment [9] it was 1.28 µM (inactive); in experiment [10] it was 10.3 µM (inactive). Further, the GI50 in [11] was 0.962 µM (active); in experiment [12], > 100 µM (inactive); in experiment [13] it was 11.7 µM (inactive); in [14], 0.39 µM (active); in [15], 4.73 µM (inactive); in experiment [17], 8.04 µM (inactive).

On to `NCC[Se][Se]CCN`, for which the GI50 in experiment [1] was 5.66 µM (inactive); in experiment [18], 9.18 µM (inactive); in experiment [19] it was 10.4 µM (inactive); in [2], 11.8 µM (inactive); in experiment [3], 4.28 µM (inactive); in experiment [4], 10.7 µM (inactive). Besides, the GI50 in experiment [5] was 6.03 µM (inactive); in experiment [6], 13.3 µM (inactive); in experiment [7], 14.4 µM (inactive); in experiment [8], 6.4 µM (inactive); in experiment [9], 11 µM (inactive); in experiment [10] it was 8.15 µM (inactive). For the same compound, the GI50 is 10.7 µM (inactive) in [11]; 9.31 µM (inactive) in experiment [12]; 8.05 µM (inactive) in [14]; 12.3 µM (inactive) in [15]; 10.6 µM (inactive) in experiment [16]; 9.23 µM (inactive) in experiment [17].

`C[n+]1ccccc1/C1=c2\cc/c([nH]2)=C(\c2cccc[n+]2C)C2=N/C(=C(/c3cccc[n+]3C)C3C=CC(N3)/C(c3cccc[n+]3C)=C3/C=CC1=N3)C=C2`: the GI50 in experiment [1] is 71.4 µM (inactive); in experiment [18], > 100 µM (inactive); in [19] it was > 100 µM (inactive); in experiment [2] it was > 100 µM (inactive); in experiment [3] it was 46.3 µM (inactive); in experiment [4], > 100 µM (inactive). For the same compound, the GI50 in experiment [5] was > 100 µM (inactive); in experiment [6], > 100 µM (inactive); in experiment [7], > 100 µM (inactive); in experiment [8] it was 40.9 µM (inactive); in [9], > 100 µM (inactive); in experiment [10], > 100 µM (inactive). In addition, the GI50 was 73.3 µM (inactive) in [11]; > 100 µM (inactive) in experiment [12]; > 100 µM (inactive) in [13]; 62.4 µM (inactive) in experiment [14]; 57 µM (inactive) in experiment [15]; 92.9 µM (inactive) in experiment [17].

The GI50 is the concentration giving 50% growth inhibition.
